Reference: patent US7998989B2, “2-Imino-1,3-thiazoline-based compounds and T-type calcium channel inhibitors containing the same” (Korea Institute of Science and Technology, priority 2007, dated 2011)

Columns and labels:
[1] = target: T1, α1G T-type calcium channel (Homo sapiens, UniProt O43497); test: Assay for % inhibiting activity against T-type calcium channel using FDSS6000 (fluo-3 calcium imaging, KCl activation); format: cell-based; settings: HEK293, 10 μM; HEK293 cells stably expressing α1G T-type calcium channel and Kir2.1; compounds of the examples; read-out: FDSS (% inhibition)/10uM
T1 construct: host or cells: HEK293
T1 sequence (O43497 whole entry): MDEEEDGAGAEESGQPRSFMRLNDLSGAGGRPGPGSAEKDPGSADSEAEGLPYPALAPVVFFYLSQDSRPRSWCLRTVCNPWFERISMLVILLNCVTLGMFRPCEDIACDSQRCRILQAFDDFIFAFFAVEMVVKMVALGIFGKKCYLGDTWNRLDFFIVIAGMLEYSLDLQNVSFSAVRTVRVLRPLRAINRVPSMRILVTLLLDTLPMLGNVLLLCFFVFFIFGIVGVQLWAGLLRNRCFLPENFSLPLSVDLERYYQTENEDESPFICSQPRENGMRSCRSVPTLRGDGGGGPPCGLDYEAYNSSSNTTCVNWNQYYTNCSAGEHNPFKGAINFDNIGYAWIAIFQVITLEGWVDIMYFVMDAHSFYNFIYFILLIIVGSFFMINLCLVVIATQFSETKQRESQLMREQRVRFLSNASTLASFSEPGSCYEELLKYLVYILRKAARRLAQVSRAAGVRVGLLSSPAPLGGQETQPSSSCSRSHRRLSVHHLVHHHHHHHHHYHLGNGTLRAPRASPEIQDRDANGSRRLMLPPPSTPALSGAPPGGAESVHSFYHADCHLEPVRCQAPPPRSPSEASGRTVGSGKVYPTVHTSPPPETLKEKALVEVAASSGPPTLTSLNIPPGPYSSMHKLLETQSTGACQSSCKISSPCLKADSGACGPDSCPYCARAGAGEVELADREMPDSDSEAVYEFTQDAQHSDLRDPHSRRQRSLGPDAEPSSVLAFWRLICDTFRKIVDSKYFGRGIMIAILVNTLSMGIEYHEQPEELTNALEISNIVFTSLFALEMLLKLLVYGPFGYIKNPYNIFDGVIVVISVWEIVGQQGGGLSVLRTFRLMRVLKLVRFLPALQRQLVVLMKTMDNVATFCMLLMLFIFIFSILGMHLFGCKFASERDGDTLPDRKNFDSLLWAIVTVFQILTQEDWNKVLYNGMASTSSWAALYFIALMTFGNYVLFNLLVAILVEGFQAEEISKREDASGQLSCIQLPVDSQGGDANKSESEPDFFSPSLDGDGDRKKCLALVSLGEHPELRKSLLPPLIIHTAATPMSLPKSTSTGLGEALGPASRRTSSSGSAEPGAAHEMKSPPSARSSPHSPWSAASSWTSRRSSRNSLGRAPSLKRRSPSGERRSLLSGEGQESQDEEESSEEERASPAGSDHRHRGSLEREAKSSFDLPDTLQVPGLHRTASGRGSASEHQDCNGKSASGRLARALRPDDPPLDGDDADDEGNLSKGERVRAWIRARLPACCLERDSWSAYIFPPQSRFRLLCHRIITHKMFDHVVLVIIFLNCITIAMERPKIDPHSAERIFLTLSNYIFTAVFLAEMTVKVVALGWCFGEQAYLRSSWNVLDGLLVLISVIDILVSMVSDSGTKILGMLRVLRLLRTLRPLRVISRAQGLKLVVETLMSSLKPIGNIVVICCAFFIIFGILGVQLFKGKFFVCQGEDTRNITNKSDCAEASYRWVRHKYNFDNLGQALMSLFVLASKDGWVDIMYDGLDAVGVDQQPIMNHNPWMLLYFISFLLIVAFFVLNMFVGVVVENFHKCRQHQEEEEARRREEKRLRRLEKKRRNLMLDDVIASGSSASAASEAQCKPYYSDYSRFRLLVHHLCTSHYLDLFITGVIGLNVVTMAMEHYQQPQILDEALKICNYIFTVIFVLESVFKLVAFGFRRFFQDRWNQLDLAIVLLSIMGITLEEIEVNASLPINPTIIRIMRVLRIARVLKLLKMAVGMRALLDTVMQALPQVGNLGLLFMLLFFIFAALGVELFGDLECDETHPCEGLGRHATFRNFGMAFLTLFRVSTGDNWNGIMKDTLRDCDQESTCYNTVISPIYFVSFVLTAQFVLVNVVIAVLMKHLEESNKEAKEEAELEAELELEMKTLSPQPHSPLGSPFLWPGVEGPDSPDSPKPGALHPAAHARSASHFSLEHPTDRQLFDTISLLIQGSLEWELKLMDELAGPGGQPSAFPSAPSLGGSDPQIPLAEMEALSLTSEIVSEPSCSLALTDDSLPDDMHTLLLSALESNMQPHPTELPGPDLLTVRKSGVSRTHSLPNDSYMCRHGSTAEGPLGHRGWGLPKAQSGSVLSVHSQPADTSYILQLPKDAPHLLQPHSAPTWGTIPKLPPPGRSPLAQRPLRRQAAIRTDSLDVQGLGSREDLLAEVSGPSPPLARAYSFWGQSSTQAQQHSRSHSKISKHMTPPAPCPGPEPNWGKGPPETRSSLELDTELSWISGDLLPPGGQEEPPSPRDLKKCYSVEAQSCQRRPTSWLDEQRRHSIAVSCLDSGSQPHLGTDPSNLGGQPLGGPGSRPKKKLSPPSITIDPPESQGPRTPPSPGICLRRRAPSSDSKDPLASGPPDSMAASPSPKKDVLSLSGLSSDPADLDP
In short: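 HEK293 cells stably expressing α1G and Kir2.1 loaded with 5 μM fluo-3/AM, then in HEPES buffer (pH 7.4) with 10 mM CaCl2. Compound applied 75 s before 75 mM KCl; intracellular Ca2+ read as […] area, % inhibition relative to untreated control.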

Structure (SMILES)	inhibition at 10 µM [1]	melting point
CCCCN1C(=NC23CC4CC(CC(C4)C2)C3)SCC1CC(=O)Nc1ccc(C)cc1.Cl (centres unmarked) [KHG24781, [2-(1-adamantylimino)-3-(n-butyl)-1,3-thiazolidine-4-yl]-N-(4-methylphenyl)-acetamide hydrochloride]	47.2%	164 °C
CCCCN1C(=NC23CC4CC(CC(C4)C2)C3)SCC1CC(=O)Nc1ccc(CC)cc1.Cl (centres unmarked) [KHG24782, [2-(1-adamantylimino)-3-(n-butyl)-1,3-thiazolidine-4-yl]-N-(4-ethylphenyl)-acetamide hydrochloride]	30.6%	156 °C
CCCCN1C(=NC23CC4CC(CC(C4)C2)C3)SCC1CC(=O)Nc1ccc(Cl)cc1F.Cl (centres unmarked) [KHG24783, [2-(1-adamantylimino)-3-(n-butyl)-1,3-thiazolidine-4-yl]-N-(4-chloro-2-fluorophenyl)-acetamide hydrochloride]	54.4%	161 °C
CCCCN1C(=NC23CC4CC(CC(C4)C2)C3)SCC1CC(=O)Nc1ccc(Br)cc1.Cl (centres unmarked) [KHG24784, [2-(1-adamantylimino)-3-(n-butyl)-1,3-thiazolidine-4-yl]-N-(4-bromophenyl)-acetamide hydrochloride]	36.6%	172 °C
CCCCN1C(=NC23CC4CC(CC(C4)C2)C3)SCC1CC(=O)Nc1cc(Cl)ccc1F.Cl (centres unmarked) [KHG24785, [2-(1-adamantylimino)-3-(n-butyl)-1,3-thiazolidine-4-yl]-N-(5-chloro-2-fluorophenyl)-acetamide hydrochloride]	47.1%	156 °C
Cl.O=C(CC1CSC(=NC23CC4CC(CC(C4)C2)C3)N1C1CC1)Nc1cc(C(F)(F)F)cc(C(F)(F)F)c1 (centres unmarked) [KHG24792, [2-(1-adamantylimino)-3-cyclopropyl-1,3-thiazolidine-4-yl]-N-(3,5-ditrifluoromethylphenyl)-acetamide hydrochloride]	67%	258 °C
CCCCN1C(=NC23CC4CC(CC(C4)C2)C3)SCC1CC(=O)Nc1ccc(C(C)C)cc1.Cl (centres unmarked) [KHG24795, [2-(1-adamantylimino)-3-(n-butyl)-1,3-thiazolidine-4-yl]-N-(4-isopropylphenyl)-acetamide hydrochloride]	33.7%	244 °C
CCc1ccc(NC(=O)CC2CSC(=NC34CC5CC(CC(C5)C3)C4)N2C2CC2)cc1.Cl (centres unmarked) [KHG24799, [2-(1-adamantylimino)-3-cyclopropyl-1,3-thiazolidine-4-yl]-N-(4-ethylphenyl)-acetamide hydrochloride]	63.4%	266 °C
Cl.O=C(CC1CSC(=NC23CC4CC(CC(C4)C2)C3)N1C1CC1)Nc1ccc(Cl)cc1F (centres unmarked) [KHG24801, [2-(1-adamantylimino)-3-cyclopropyl-1,3-thiazolidine-4-yl]-N-(4-chloro-2-fluorophenyl)-acetamide hydrochloride]	63.8%	261 °C
Cl.O=C(CC1CSC(=NC23CC4CC(CC(C4)C2)C3)N1C1CC1)Nc1cc(Cl)ccc1F (centres unmarked) [KHG24802, [2-(1-adamantylimino)-3-cyclopropyl-1,3-thiazolidine-4-yl]-N-(5-chloro-2-fluorophenyl)-acetamide hydrochloride]	62.4%	244 °C
CCCN1C(=NC23CC4CC(CC(C4)C2)C3)SCC1CC(=O)Nc1cc(Cl)cc(Cl)c1.Cl (centres unmarked) [KHG24805, [2-(1-adamantylimino)-3-n-propyl-1,3-thiazolidine-4-yl]-N-(3,5-dichlorophenyl)-acetamide hydrochloride]	32.2%	153 °C
CCCN1C(=NC23CC4CC(CC(C4)C2)C3)SCC1CC(=O)Nc1ccc(C(C)C)cc1.Cl (centres unmarked) [KHG24807, [2-(1-adamantylimino)-3-n-propyl-1,3-thiazolidine-4-yl]-N-(4-isopropylphenyl)-acetamide hydrochloride]	59.7%	155 °C
CCCCc1ccc(NC(=O)CC2CSC(=NC34CC5CC(CC(C5)C3)C4)N2CCC)cc1.Cl (centres unmarked) [KHG24808, [2-(1-adamantylimino)-3-n-propyl-1,3-thiazolidine-4-yl]-N-(4-n-butylphenyl)-acetamide hydrochloride]	37.6%	213 °C
CCCN1C(=NC23CC4CC(CC(C4)C2)C3)SCC1CC(=O)Nc1ccc(C(F)(F)F)cc1.Cl (centres unmarked) [KHG24809, [2-(1-adamantylimino)-3-n-propyl-1,3-thiazolidine-4-yl]-N-(4-trifluoromethylphenyl)-acetamide hydrochloride]	57.3%	221 °C
CCCN1C(=NC23CC4CC(CC(C4)C2)C3)SCC1CC(=O)Nc1ccc(Br)cc1.Cl (centres unmarked) [KHG24812, [2-(1-adamantylimino)-3-n-propyl-1,3-thiazolidine-4-yl]-N-(4-bromophenyl)-acetamide hydrochloride]	53.8%	228 °C
CCCN1C(=NC23CC4CC(CC(C4)C2)C3)SCC1CC(=O)Nc1ccc(C)cc1.Cl (centres unmarked) [KHG24813, [2-(1-adamantylimino)-3-n-propyl-1,3-thiazolidine-4-yl]-N-(4-methylphenyl)-acetamide hydrochloride]	61.6%	239 °C
CCCN1C(=NC23CC4CC(CC(C4)C2)C3)SCC1CC(=O)Nc1ccc(Oc2ccccc2)cc1.Cl (centres unmarked) [KHG24815, [2-(1-adamantylimino)-3-n-propyl-1,3-thiazolidine-4-yl]-N-(4-phenoxyphenyl)-acetamide hydrochloride]	32.7%	135 °C
CCCN1C(=NC23CC4CC(CC(C4)C2)C3)SCC1CC(=O)Nc1cc(Cl)ccc1F.Cl (centres unmarked) [KHG24817, [2-(1-adamantylimino)-3-n-propyl-1,3-thiazolidine-4-yl]-N-(5-chloro-2-fluorophenyl)-acetamide hydrochloride]	60.5%	130 °C
CCCN1C(=NC23CC4CC(CC(C4)C2)C3)SCC1CC(=O)Nc1ccc(C)cc1Cl.Cl (centres unmarked) [KHG24818, [2-(1-adamantylimino)-3-n-propyl-1,3-thiazolidine-4-yl]-N-(2-chloro-4-methylphenyl)-acetamide hydrochloride]	68.2%	201 °C
CCN1C(=NC23CC4CC(CC(C4)C2)C3)SCC1CC(=O)Nc1ccc(C(C)C)cc1.Cl (centres unmarked) [KHG24819, [2-(1-adamantylimino)-3-ethyl-1,3-thiazolidine-4-yl]-N-(4-isopropylphenyl)-acetamide hydrochloride]	69.2%	158 °C
CCCCc1ccc(NC(=O)CC2CSC(=NC34CC5CC(CC(C5)C3)C4)N2CC)cc1.Cl (centres unmarked) [KHG24820, [2-(1-adamantylimino)-3-ethyl-1,3-thiazolidine-4-yl]-N-(4-n-butylphenyl)-acetamide hydrochloride]	58%	141 °C
CC(C)N1C(=NC23CC4CC(CC(C4)C2)C3)SCC1CC(=O)Nc1ccc(Cl)cc1.Cl (centres unmarked) [KHG24823, [2-(1-adamantylimino)-3-isopropyl-1,3-thiazolidine-4-yl]-N-(4-chlorophenyl)-acetamide hydrochloride]	54.1%	236 °C
